Our source for the GI50, Activity and selectivity ratio values is ChEMBL document CHEMBL4732069, “Singly and doubly modified analogues of C20-epi-salinomycin: A new group of antiparasitic agents against Trypanosoma brucei” (Eur J Med Chem, 2021).

Molecules are shown by their SMILES. Calls of active or inactive are those of the source. The calls are words filed in the database; no cut-off is given here. Some results are limits rather than exact numbers.

Data set [1] concerns Trypanosoma brucei brucei. As to the kind of experiment: Antitrypanosomal activity against Trypanosoma brucei brucei S427 by resazurin dye based fluorescence assay. In kind it is functional.
Data set [2] relates to Trypanosoma brucei brucei. Put plainly: Antitrypanosomal activity against Trypanosoma brucei brucei assessed as cell swelling. The format is functional, organism-based.
The nature of data set [3]: Selectivity index, ratio of GI50 for human HL-60 cells to GI50 for antitrypanosomal activity against Trypanosoma brucei brucei S427. In kind it is toxicity. Conditions: read-out: RatioGI50.
A short description of data set [4]: Cytotoxicity against human HL-60 cells by resazurin dye based fluorescence assay. The format is cell-based.

Regarding `CC[C@@H](C(=O)[C@@H](C)[C@@H](O)[C@H](C)[C@@H]1O[C@@H]([C@@H](CC)C(=O)O)CC[C@@H]1C)[C@H]1O[C@]2(C=C[C@@H](O)[C@]3(CC[C@@](C)([C@H]4CC[C@](O)(CC)[C@H](C)O4)O3)O2)[C@H](C)C[C@@H]1C` [SALINOMYCIN], the GI50 in data set [1] turned out to be 0.3 µM; in data set [4], 50.5 µM. Further, in data set [2], the result was Active. Further, the selectivity ratio in data set [3] was determined as 168.
On to `CC[C@@H](C(=O)[C@@H](C)[C@@H](O)[C@H](C)[C@@H]1O[C@@H]([C@@H](CC)C(=O)O)CC[C@@H]1C)[C@H]1O[C@]2(C=C[C@H](OC(=O)Oc3ccccc3)[C@]3(CC[C@@](C)([C@H]4CC[C@](O)(CC)[C@H](C)O4)O3)O2)[C@H](C)C[C@@H]1C`, for which the GI50 is 0.22 µM in data set [1] and 23.4 µM in data set [4]. For the same compound, in data set [3], the selectivity ratio was found to be 106.
With `CCNC(=O)N(CC)C(=O)O[C@H]1C=C[C@]2(O[C@H]([C@@H](CC)C(=O)[C@@H](C)[C@@H](O)[C@H](C)[C@@H]3O[C@@H]([C@@H](CC)C(=O)O)CC[C@@H]3C)[C@@H](C)C[C@H]2C)O[C@@]12CC[C@@](C)([C@H]1CC[C@](O)(CC)[C@H](C)O1)O2`, the GI50 stood at 0.027 µM in data set [1] and 9.54 µM in data set [4]. For the same compound, in data set [2], the outcome was Active. In addition, in data set [3], the selectivity ratio amounted to 353.
For `CCOC(=O)O[C@H]1C=C[C@]2(O[C@H]([C@@H](CC)C(=O)[C@@H](C)[C@@H](O)[C@H](C)[C@@H]3O[C@@H]([C@@H](CC)C(=O)O)CC[C@@H]3C)[C@@H](C)C[C@H]2C)O[C@@]12CC[C@@](C)([C@H]1CC[C@](O)(CC)[C@H](C)O1)O2` the same measures were 0.2 µM, 12.6 µM, “Active” and 293.
As for `CC[C@@H](C(=O)[C@@H](C)[C@@H](O)[C@H](C)[C@@H]1O[C@@H]([C@@H](CC)C(=O)O)CC[C@@H]1C)[C@H]1O[C@]2(C=C[C@H](OC(=O)c3ccccc3)[C@]3(CC[C@@](C)([C@H]4CC[C@](O)(CC)[C@H](C)O4)O3)O2)[C@H](C)C[C@@H]1C`, the GI50 turned out to be 0.34 µM in data set [1] and 13.5 µM in data set [4]. Further, the selectivity ratio in data set [3] is 67.5.
`CC[C@@H](C(=O)[C@@H](C)[C@@H](O)[C@H](C)[C@@H]1O[C@@H]([C@@H](CC)C(=O)O)CC[C@@H]1C)[C@H]1O[C@]2(C=C[C@H](OC(=O)C34CC5CC(CC(C5)C3)C4)[C@]3(CC[C@@](C)([C@H]4CC[C@](O)(CC)[C@H](C)O4)O3)O2)[C@H](C)C[C@@H]1C`: the figures for the GI50 in data set [1] and in data set [4] were 0.24 µM and 18.7 µM, respectively. Also, the selectivity ratio in data set [3] amounted to 55.
In the same order, the values of `CC[C@@H](C(=O)[C@@H](C)[C@@H](O)[C@H](C)[C@@H]1O[C@@H]([C@@H](CC)C(=O)ONC(=O)c2ccccc2O)CC[C@@H]1C)[C@H]1O[C@]2(C=C[C@H](OC(C)=O)[C@]3(CC[C@@](C)([C@H]4CC[C@](O)(CC)[C@H](C)O4)O3)O2)[C@H](C)C[C@@H]1C` are 0.59 µM, 203 µM and 353.
In the same order, the values of `CC[C@@H](C(=O)[C@@H](C)[C@@H](O)[C@H](C)[C@@H]1O[C@@H]([C@@H](CC)C(=O)O)CC[C@@H]1C)[C@H]1O[C@]2(C=C[C@H](OC(C)=O)[C@]3(CC[C@@](C)([C@H]4CC[C@](O)(CC)[C@H](C)O4)O3)O2)[C@H](C)C[C@@H]1C` are 0.043 µM, 52.5 µM and 21.2.
For `C#CCOC(=O)[C@H](CC)[C@H]1CC[C@H](C)[C@H]([C@@H](C)[C@H](O)[C@H](C)C(=O)[C@H](CC)[C@H]2O[C@]3(C=C[C@H](OC(C)=O)[C@]4(CC[C@@](C)([C@H]5CC[C@](O)(CC)[C@H](C)O5)O4)O3)[C@H](C)C[C@@H]2C)O1` the same measures were 22.4 µM, more than 100 µM and 123.
As to `C#CCNC(=O)[C@H](CC)[C@H]1CC[C@H](C)[C@H]([C@@H](C)[C@H](O)[C@H](C)C(=O)[C@H](CC)[C@H]2O[C@]3(C=C[C@H](OC(=O)OCC)[C@]4(CC[C@@](C)([C@H]5CC[C@](O)(CC)[C@H](C)O5)O4)O3)[C@H](C)C[C@@H]2C)O1`, the values for the concentration for 50% growth inhibition (GI50) in data set [1] and in data set [4] were 13.8 µM and 61.8 µM, respectively. In addition, in data set [3], the selectivity ratio was 106.
For `CCCCCCCCNC(=O)O[C@H]1C=C[C@]2(O[C@H]([C@@H](CC)C(=O)[C@@H](C)[C@@H](O)[C@H](C)[C@@H]3O[C@@H]([C@@H](CC)C(=O)O)CC[C@@H]3C)[C@@H](C)C[C@H]2C)O[C@@]12CC[C@@](C)([C@H]1CC[C@](O)(CC)[C@H](C)O1)O2` the same measures were 0.2 µM, 24.6 µM and 123.
On to `CCCCCCCCCC(=O)O[C@H]1C=C[C@]2(O[C@H]([C@@H](CC)C(=O)[C@@H](C)[C@@H](O)[C@H](C)[C@@H]3O[C@@H]([C@@H](CC)C(=O)O)CC[C@@H]3C)[C@@H](C)C[C@H]2C)O[C@@]12CC[C@@](C)([C@H]1CC[C@](O)(CC)[C@H](C)O1)O2`, for which the results for the GI50 in data set [1] and in data set [4] were 2.48 µM and 5.97 µM, respectively. In addition, in data set [2], the outcome was Active. Besides, the selectivity ratio in data set [3] was determined as 165.
For the compound `CC[C@@H](C(=O)[C@@H](C)[C@@H](O)[C@H](C)[C@@H]1O[C@@H]([C@@H](CC)C(=O)O)CC[C@@H]1C)[C@H]1O[C@]2(C=C[C@H](OC(=O)NC(C)(C)C)[C@]3(CC[C@@](C)([C@H]4CC[C@](O)(CC)[C@H](C)O4)O3)O2)[C@H](C)C[C@@H]1C`, the 50% growth inhibitory concentration (GI50) was 0.32 µM in data set [1] and more than 100 µM in data set [4]. Further, the selectivity ratio in data set [3] was more than 312.
For the compound `CC[C@@H](C(=O)[C@@H](C)[C@@H](O)[C@H](C)[C@@H]1O[C@@H]([C@@H](CC)C(=O)O)CC[C@@H]1C)[C@H]1O[C@]2(C=C[C@H](O)[C@]3(CC[C@@](C)([C@H]4CC[C@](O)(CC)[C@H](C)O4)O3)O2)[C@H](C)C[C@@H]1C`, the GI50 in data set [1] came to 8.49 µM; in data set [4], 393 µM. For the same compound, the outcome in data set [2] was inactive. Besides, the selectivity ratio in data set [3] came to 4.6.
Consider `C#CCNC(=O)[C@H](CC)[C@H]1CC[C@H](C)[C@H]([C@@H](C)[C@H](O)[C@H](C)C(=O)[C@H](CC)[C@H]2O[C@]3(C=C[C@H](OC(C)=O)[C@]4(CC[C@@](C)([C@H]5CC[C@](O)(CC)[C@H](C)O5)O4)O3)[C@H](C)C[C@@H]2C)O1`, for which the GI50 in data set [1] was 20.9 µM; in data set [4], 39.8 µM. For the same compound, the selectivity ratio in data set [3] worked out at 2.
In the same order, the values of `C#CCOC(=O)[C@H](CC)[C@H]1CC[C@H](C)[C@H]([C@@H](C)[C@H](O)[C@H](C)C(=O)[C@H](CC)[C@H]2O[C@]3(C=C[C@H](O)[C@]4(CC[C@@](C)([C@H]5CC[C@](O)(CC)[C@H](C)O5)O4)O3)[C@H](C)C[C@@H]2C)O1` are 26.9 µM, more than 100 µM and more than 3.7.
